The values that follow come from patent US10662555B2, “Polyimide fiber and method for producing polyimide fiber” (I.S.T Corporation, priority 2016, dated 2020).

For data set [1] the following is noted: conjugate acid in water at 25° C.; cited from earlier work.
Data set [2] can be described thus: octanol-water partition coefficient (Log P) at 25° C., shake flask method. Conditions: for logP: octanol/water; for Log P: octanol-water partition coefficient at 25° C.
Data set [3] is described as follows: physchem.

`Cn1ccnc1` [1-methyl-1,3-diazole]: the pKa (as a rule, the negative logarithm of the acid dissociation constant) in data set [1] was 6.95. In addition, in data set [2], the logP (as a rule, the decadic logarithm of the partition coefficient of the neutral form, usually between octanol and water) is -0.19. Consider `Cc1ncc[nH]1` [2-methyl-1,3-diazole], for which, in data set [2], the Log P (as a rule, a log measure of how a compound divides between an organic and an aqueous phase) was determined as 0.24.

Compound `CC(O)CN(CC(C)O)CC(C)O` (centres unmarked) [triisopropanolamine] had a logP in data set [3] of -0.015.

Regarding `Cc1nccn1C` [1,2-dimethyl-1,3-diazole], the log partition coefficient (logP) in data set [2] was 0.11. In the case of `Cc1cccnc1` [β-picoline], in data set [2], the “Log P” value is listed as 1.2. Consider `CCN(CC)CC` [Triethylamine, triethylamine], for which, in data set [2], the logP was 1.45. Turning to `CCCN(CCC)CCC` [Tripropylamine, tripropylamine], in data set [2], the lipophilicity (Log P) is reported as 2.79. For the compound `C1CNCCN1` [Piperazine, piperazine], the “Log P” value in data set [2] is recorded as −1.5.

Turning to `CCCCN(CCCC)CCCC` [Tributylamine, tributylamine], in data set [2], the “Log P” value is listed as over 2.79 and the logP was over 2.79.
